Patent EP4786466A1, “QUINAZOLINE DERIVATIVE, SALT THEREOF, AND PHARMACEUTICAL COMPOSITION COMPRISING SAME AS ACTIVE INGREDIENT” (Korea Research Institute of Chemical Technology, priority 2023, dated 2025)
Structures can show the parent of a compound that is named as a salt. Where two headings read alike, the source gives them in different places.

How the values were obtained:
[1] = tested on: MCF10A normal breast cell lines; assay: Cell viability analysis, WST-8 assay, MCF10A; conditions: Homo sapiens, MCF-10A, 72 h
Description: (§1) MCF7 breast cancer cell lines and MCF10A normal breast cancer cell lines were treated with serial dilutions of the compounds of the present invention ranging from 1 µM to 15.63 nM for 72 hours. Cell viability was measured by the WST-8 assay (Cyto XTM cell viability assay kit; LPS solution, Daejeon, Korea) according to the manufacturer's instructions.

[2] = tested on: MCF7 breast cancer cell lines; assay: Cell viability analysis, WST-8 assay, MCF7; conditions: Homo sapiens, MCF7, 72 h; for viability at 1.25 µM: read-out: Cell viability (%) WST-8, MCF7, footnote a: concentration 1.25 µM, 72 hours; for viability at 1 µM: read-out: Cell viability (%) WST-8, MCF7 (1 µM), compound 1 µM, 72 hours
Description: as §1

pENSA = pENSA level by immunofluorescence (described method: in vitro kinase analysis with GST-tag-MASTL and His-tag-ENSA); format: cell-based; conditions: for pENSA (%) Immunofluor ecense (1 µM): compound 1 µM
Method in brief: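 In vitro kinase reaction using recombinant GST-tagged MASTL with His-tagged ENSA as substrate; phosphorylated ENSA (pENSA) serves as read-out of MASTL activity. Cell lines named: MCF7 breast cancer and MCF10A.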

in vitro = conditions: human
Description: as §1

[3] = target: T1, Recombinant GST-TAG-MASTL (Homo sapiens, UniProt Q96GX5); assay: HTRF-based kinase assay (HTRF KinEASE assay kit); format: biochemical; conditions: for activity at 10 µM: footnote b: concentration 10 µM, read-out: MASTL activity (%) HTRF; for activity at 1 µM: read-out: MASTL activity (%) HTRF (1 µM)
T1 construct: GST; purchased Thermo Fisher Scientific
T1 sequence (Q96GX5 1-879): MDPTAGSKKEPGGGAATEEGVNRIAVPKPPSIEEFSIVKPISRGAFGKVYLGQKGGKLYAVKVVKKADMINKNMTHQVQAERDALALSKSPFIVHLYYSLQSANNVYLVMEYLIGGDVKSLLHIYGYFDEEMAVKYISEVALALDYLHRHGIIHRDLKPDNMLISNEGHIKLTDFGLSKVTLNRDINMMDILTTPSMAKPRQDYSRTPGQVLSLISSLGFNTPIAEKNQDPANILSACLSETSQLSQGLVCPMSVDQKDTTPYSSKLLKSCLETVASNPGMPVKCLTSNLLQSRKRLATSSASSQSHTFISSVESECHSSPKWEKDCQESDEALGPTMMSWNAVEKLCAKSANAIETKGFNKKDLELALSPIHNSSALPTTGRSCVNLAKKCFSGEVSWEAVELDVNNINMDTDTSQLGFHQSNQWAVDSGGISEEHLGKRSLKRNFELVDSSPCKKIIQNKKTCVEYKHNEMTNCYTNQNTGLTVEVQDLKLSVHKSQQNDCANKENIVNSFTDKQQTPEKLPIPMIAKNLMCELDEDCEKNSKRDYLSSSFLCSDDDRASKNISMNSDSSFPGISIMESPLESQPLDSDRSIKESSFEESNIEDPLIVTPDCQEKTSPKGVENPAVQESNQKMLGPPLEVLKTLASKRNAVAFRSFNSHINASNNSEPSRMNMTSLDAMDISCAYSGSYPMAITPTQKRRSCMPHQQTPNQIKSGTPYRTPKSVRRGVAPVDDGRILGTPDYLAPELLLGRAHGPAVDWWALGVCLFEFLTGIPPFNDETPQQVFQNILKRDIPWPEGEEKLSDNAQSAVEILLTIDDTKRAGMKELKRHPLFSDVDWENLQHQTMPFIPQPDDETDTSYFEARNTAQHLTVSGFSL
Source text: Recombinant GST-TAG-MASTL (Thermo Fisher Scientific, MA, USA) was used for HTRF-based kinase assays. The HTRF KinEASE assay kit (CisBio, MA, USA) was used according to the manufacturer's instructions.

[4] = read-out: IC50 Cell viability (MCF10A)
[5] = read-out: IC50 Cell viability (MCF7)
[6] = HTRF, read-out: IC50(nM) MASTL activity
[7] = read-out: IC50(nM) Cell viability (MCF10A)
[8] = read-out: IC50(nM) Cell viability (MCF7)

SMILES | viability at 1.25 µM [2] [%] | IC50 (pENSA; read-out: IC50(nM) pENSA) [nM] | IC50 [3, 6] [nM] | activity at 10 µM [3] [%] | IC50 [1, 7] [nM] | viability at 1 µM [2] [%] | IC50 [2, 8] [nM] | activity at 1 µM ([3]; compound 1 µM) [%] | pENSA (%) Immunofluor ecense (1 µM) (pENSA) [%] | viability at 1 µM (in vitro; mcf10a cells) [%] | also measured
c1ccc(CCNc2nc(Nc3cc(C4CC4)[nH]n3)c3ccccc3n2)cc1 [compound 4ce, N^4-(5-cyclopropyl-1H-pyrazol-3-yl)-N^2-phenethylquinazoline-2,4-diamine] | 72.8 | 491 | 692 | 14.1 |  |  |  |  |  |  | IC50 [1, 4]: 3700 nM; IC50 [2, 5]: 1500 nM; viability at 1.25 µM (in vitro): 100%
c1ccc2c(Nc3cc(C4CC4)[nH]n3)nc(Nc3ccc4[nH]ccc4c3)nc2c1 [compound 4db, N^4-(5-cyclopropyl-1H-pyrazol-3-yl)-N^2-(1H-indol-5-yl)quinazoline-2,4-diamine] |  |  |  |  | 300 | 3.2 | 221 | 28.9 |  |  | IC50 (pENSA; unit µM, read-out: IC50 pENSA): 2100 nM; viability at 1 µM (in vitro): 8.9%
OCCNc1nc(Nc2cc(C3CC3)[nH]n2)c2ccccc2n1 [compound 4cf, 2-((4-((5-cyclopropyl-1G-pyrazol-3-yl)amino)quinazolin-2-yl)amino)ethan-1-ol hydrochloride] | 87 | 423 | 893 | 23.7 |  |  |  |  | 17.4 |  | IC50 [1, 4]: 1200 nM; IC50 [2, 5]: 1800 nM; viability at 1.25 µM (in vitro; mcf10a cells): 56.4%
Nc1ccc(Nc2nc(Nc3cc(C4CC4)[nH]n3)c3ccccc3n2)cc1 [compound 4v, M^2-(4-aminophenyl)-M^4-(5-cyclopropyl-1G-pyrazol-3-yl)quinazoline-2,4-diamine] |  |  |  |  | 438 | 32.8 | 390 | 41.4 | 15.3 | 34.1 | IC50 ([3]; HTRF, unit µM, read-out: IC50 MASTL activity): 1500 nM
CNS(=O)(=O)c1ccc(Nc2nc(Nc3cc(C4CC4)[nH]n3)c3ccccc3n2)cc1 [compound 4h, 4-((4-((5-cyclopropyl-1G-pyrazol-3-yl)amino)quinazolin-2-yl)amino)-M-methylbenzenesulfonamide] | 41.8 | 408 | 843 | 17.6 | 57.2 |  | 758 |  | 17.1 |  | viability at 1.25 µM (in vitro; mcf10a cells): 4.7%
Cc1ccc(C2=CCN(c3nc(Nc4cc(C5CC5)[nH]n4)c4ccccc4n3)CC2)c(C)c1 [compound 6j, M-(5-cyclopropyl-1G-pyrazol-3-yl)-2-(4-(2,4-dimethylphenyl)-3,6-dihydropyridin-1(2G)-yl)quinazolin-4-amine] |  |  |  |  | 566 | 45.6 | 674 | 80 | 97.4 | 33.1 | 
c1ccc2c(Nc3cc(C4CC4)[nH]n3)nc(N3CC4CCC(C3)N4)nc2c1 [20' (B), 2-(3,8-diazabicyclo[3.2.1]octan-3-yl)-M-(5-cyclopropyl-1G-pyrazol-3-yl)quinazolin-4-amine trifluoroacetic acid] |  | 755 |  |  | 596 | 32 | 365 |  | 21 | 34.9 | IC50 [3]: 106 nM; activity at 1 µM [3]: 6.6%
O=S(=O)(c1ccc(F)cc1)N1CC2CC1CN2c1nc(Nc2cc(C3CC3)[nH]n2)c2ccccc2n1 (stereo not shown) [compound 15n, M-(5-cyclopropyl-1G-pyrazol-3-yl)-2-(5-((4-fluorophenyl)sulfonyl)-2,5-diazabicyclo[2.2.1]heptan-2-yl)quinazolin-4-amine] |  |  | 327 |  |  |  |  | 32.4 | 77.5 |  | IC50 [1, 4]: 1300 nM; viability at 1.1 µM ([2]; read-out: Cell viability (%) WST-8, MCF7, footnote d: concentration 1.1 µM, 72 hours): 108%; IC50 [2, 5]: 3500 nM; viability at 1.1 µM (in vitro; mcf10a cells): 63.9%
CCNC(=O)N1CCN(c2nc(Nc3cc(C4CC4)[nH]n3)c3ccccc3n2)CC1 [compound 12c, 4-(4-((5-cyclopropyl-1G-pyrazol-3-yl)amino)quinazolin-2-yl)-M-ethylpiperazine-1-carboxamide] | 107 |  |  | 45.7 |  |  |  |  | 75.8 |  | IC50 [1, 4]: 1400 nM; viability at 1.25 µM (in vitro; mcf10a cells): 61.3%
NC(=O)c1ccc(Nc2nc(Nc3cc(C4CC4)[nH]n3)c3ccccc3n2)cc1 [compound 4t, 4-((4-((5-cyclopropyl-1G-pyrazol-3-yl)amino)quinazolin-2-yl)amino)benzamide] |  | 341 | 198 |  | 226 | 2.7 | 324 | 14.9 | 0.9 | 18.4 | 
CNCc1ccc(-c2nc(Nc3cc(C4CC4)[nH]n3)c3ccccc3n2)cc1 [9d, N-(5-cyclopropyl-1H-pyrazol-3-yl)-2-(4-((methylamino)methyl)phenyl)quinazolin-4-amine hydrogen chloride] | 36.2 | 577 | 119 | 20.4 | 413 |  | 539 |  |  |  | viability at 1.25 µM (in vitro): 11.1%
c1ccc2c(Nc3cc(C4CC4)[nH]n3)nc(Nc3cccc4[nH]ccc34)nc2c1 [compound 4da, N^4-(5-cyclopropyl-1H-pyrazol-3-yl)-N^2-(1H-indol-4-yl)quinazoline-2,4-diamine] |  |  | 309 |  | 683 | 30.1 | 702 | 58.5 |  |  | IC50 (pENSA; unit µM, read-out: IC50 pENSA): 1800 nM; viability at 1 µM (in vitro): 18.9%
Cc1cc(Cl)ccc1C1=CCN(c2nc(Nc3cc(C4CC4)[nH]n3)c3ccccc3n2)CC1 [compound 6l, 2-(4-(4-chloro-2-methylphenyl)-3,6-dihydropyridin-1(2G)-yl)-M-(5-cyclopropyl-1G-pyrazol-3-yl)quinazolin-4-amine] |  |  |  |  | 332 | 47.8 | 484 | 76.1 | 101 | 15.2 | 
O=C(O)Cc1ccc(Nc2nc(Nc3cc(C4CC4)[nH]n3)c3ccccc3n2)cc1 [compound 4s, 2-(4-((4-((5-cyclopropyl-1G-pyrazol-3-yl)amino)quinazolin-2-yl)amino)phenyl)acetic acid] |  | 89.1 |  |  | 113 | 102 | 102 | 56.2 | 89.1 | 113 | 
